The species entered for the assay is Mus musculus. As to the kind of experiment: Effective dose for inhibition of phencyclidine binding measured in mouse rotarod assay. The format is functional. On the technique in general: The rotarod test checks motor coordination on a turning rod.
Turning to `Oc1cccc(C2(N3CCCCC3)CCCCC2)c1`, the ED50 (in general, the midpoint of the dose-response relation) worked out at 2.2 mg/kg.

For `OC1CCCC(c2ccccc2)(N2CCCCC2)C1` (stereo unspecified), it took a dose of 49.9 mg/kg to reach the 50% effect level (ED50). Against the preceding molecule, the ED50 is about 23-fold higher.

The molecule `Oc1ccc(C2(N3CCCCC3)CCCCC2)cc1` gave an ED50 of 28 mg/kg.

`OC1CCN(C2(c3ccccc3)CCCCC2)CC1` returned a median effective dose (ED50) of 42 mg/kg. Against the preceding molecule, the ED50 is about 1.5-fold higher.

On to `Oc1ccccc1C1(N2CCCCC2)CCCCC1`, for which the 50% effect level (ED50) was put at a dose of 18 mg/kg.

Take `c1ccc(C2(N3CCCCC3)CCCCC2)cc1` [PHENCYCLIDINE]: it took a dose of 4 mg/kg to reach the 50% effect level (ED50).

The values above are taken from ChEMBL document CHEMBL1122042, “Chemical synthesis and molecular pharmacology of hydroxylated 1-(1-phenylcyclohexyl-piperidine derivatives” (1982).
